How the values were obtained:
AR = assay: Western blot of AR in total, cytoplasmic and nuclear protein fractions; assay type: cell-based, human
Text: (§1) The human cell lines used in the study included: 22Rv1, LNCaP, PC-3, RC77 T/E and MDA PCa 2b (prostate cancer cell lines), MDA MB 231 and MCF-7 (breast cancer cell lines), HT-29 and SW620 (colon cancer cell lines), A549 and H1299 (lung cancer cell lines). RWPE-1, HMEC, FHC, and BEAS-2B were used as normal control cell lines for prostate, breast, colon, and lung, respectively. Note that 22Rv1 is a castration-resistant […] prostate cancer cell line, while LNCaP and PC-3 were derived from lymph node and bone metastasis of […] prostate cancer patients, respectively. RC77 T/E was derived from a primary prostate cancer patient, and MDA PCa 2b was derived from bone metastasis of an prostate cancer patient. The cell lines described were used as in vitro cell models to evaluate the functional roles of miR-99b-5p/MTOR pairing in the […] prostate cancer, African American prostate cancer and solid tumors in general. The cells were grown in specific cell culture media described as follows: 22Rv1, LNCaP, MCF-7 and H1299 were cultured in RPMI-1640 with 10% fetal bovine serum (FBS), PC-3, A549 and FHC were cultured in DMEM with 10% FBS, RC77 T/E was cultured in Keratinocyte SFM with human recombinant epidermal growth factor (EGF) and bovine pituitary extract (BPE), MDA PCa 2b were cultured in BRFF-HPC1 with 20% FBS, HT-29 was cultured in McCory's with 10% FBS, SW620 and MDA MB 231 were cultured in L-15 with 10% FBS, HMEC was cultured in mammary epithelial cell basal medium with supplements, and BEAS-2B was cultured in BEBM base medium with BEBM supplement kit. Cells were maintained at 37° C. in a 5% CO2 incubator.
(§2) The 22Rv1, LNCaP, PC-3, MDA PCa 2b, MCF7, H1299, A549, HT-29, SW620, MDA MB-231, HMEC and BEAS-2B cells were seeded at a density of 3×10^5 cells/well in 6-well plates. RC77 T/E cells were seeded at a density of 5×10^5 cells/well in 6-well plates. The cells were grown for 24 h and then transfected with nonsense/scrambled RNA (NS) and miR-99b-5p mimic (Ambion) using DharmaFECT4 transfection reagent (Dharmacon). After 24 h, fresh media were applied to replace the transfection reagent-containing media, then the cells were incubated for an additional 24 h.
The total proteins were extracted using M-PER extraction reagent with protease and phosphatase inhibitor cocktail (Thermo Fisher Scientific) according to manufacturer's protocol. […] Equal amounts of proteins were used based on the quantification using BCA assay kit (Thermo Fisher Scientific), and the samples were separated by electrophoresis using NuPAGE 4-12% or 8% Bis-Tris gels (Invitrogen). […] The results were analyzed with SuperSignal ECL substrates (Thermo Fisher Scientific) and a ChemiDoc XRS system (Bio-Rad). […]

mTOR and pmTOR = assay: Immunofluorescence of mTOR and pmTOR in colon, breast and lung cancer cell lines; assay type: cell-based, human
Text: as §1, §2
In this process, 4×10^4 cells were seeded on cover slip and allowed to adhere for 24 h in 5% CO2 incubator at 37° C. All the cells were subjected to immunofluorescence assays 48 h following transfection. Briefly, cells were washed with 1×PBS, fixed in 4% paraformaldehyde, and permeabilized with 0.1% Triton X-100. Cells were then blocked for 1 h with 2% BSA in 1×PBS. […] All labeled and/or prepared cells mounted on glass slides and were visualized by fluorescence microscopy (Olympus). […]

[1] = HT-29, SW620, MDA MB 231, MCF-7, A549, H1299, miR-99b-5p transfected vs NS transfected
[2] = six colon, breast, lung cancer cell lines, mimic vs NS

With “miR-99b-5p mimic: miRNA mimic of miR-99b-5p (SEQ ID NO: 2, CACCCGUAGAACCGACCUUGCG), purchased from Ambion (listed as RNA, chemistry not given here; listed as Homo sapiens)” the “cytoplasmic AR (Western blot)” value (AR; 22Rv1 and MDA PCa 2b cells) was “slight to moderate decrease”, the “AR expression levels, total lysates (Western blot)” value (AR; MCF-7, 22Rv1, MDA PCa 2b, mimic vs NS) was “significantly reduced” and the “nuclear AR protein levels (Western blot)” value (AR; MCF-7, 22Rv1, and MDA PCa 2b cells) was “significantly decreased”. For the same substance, the “cytoplasmic AR (Western blot)” value (AR; MCF-7 cells) was “no change”, the “mTOR levels (immunofluorescence)” value (mTOR and pmTOR; [1]) was “generalized reduction” and the “pmTOR levels (immunofluorescence)” value (mTOR and pmTOR; [1]) was “generalized reduction”. For the same substance, the “cytoplasmic mTOR/nuclear mTOR ratios (immunofluorescence)” value (mTOR and pmTOR; [2]) was “elevated” and the “cytoplasmic pmTOR/nuclear pmTOR ratios (immunofluorescence)” value (mTOR and pmTOR; [2]) was “elevated”.
